Laboratory results published in PMC11822212, “High-throughput screening identifies Aurora kinase B as a critical therapeutic target for Merkel cell carcinoma” (Nature Communications, 2025).
Where a name gives a salt, the structure may show the parent alone. Read-outs that look alike come from different tables or passages of the source.

Key:
Assay in all cases: qHTS cell viability (CellTiter-Glo, 72 h; primary and follow-up small molecule screen)
Format in all cases: cell-based, human
[1] = tested on: WAGA cells (VP-MCC)
[2] = tested on: UISO cells (VN-MCC)
[3] = tested on: MKL-1 cells (VP-MCC)
[4] = tested on: MCC26 cells (VN-MCC)
[5] = tested on: MCC13 cells (VN-MCC)
[6] = tested on: MKL-2 cells (VP-MCC)
[7] = follow-up screen, WAGA, replicate 1
[8] = follow-up screen, WAGA, replicate 2
[9] = follow-up screen, WAGA, replicate 3
[10] = follow-up screen, UISO, replicate 1
[11] = follow-up screen, UISO, replicate 2
[12] = follow-up screen, UISO, replicate 3
[13] = follow-up screen, MKL-1, replicate 1
[14] = follow-up screen, MKL-1, replicate 2
[15] = follow-up screen, MKL-1, replicate 3
[16] = follow-up screen, MCC26, replicate 1
[17] = follow-up screen, MCC26, replicate 2
[18] = follow-up screen, MCC26, replicate 3
[19] = follow-up screen, MCC13, replicate 1
[20] = follow-up screen, MCC13, replicate 2
[21] = follow-up screen, MCC13, replicate 3
[22] = follow-up screen, MKL-2, replicate 1
[23] = follow-up screen, MKL-2, replicate 2
[24] = follow-up screen, MKL-2, replicate 3

| SMILES | Area under the dose-response curve (AUC) WAGA Replicate 1 [1, 7] | Area under the dose-response curve (AUC) WAGA Replicate 2 [1, 8] | Area under the dose-response curve (AUC) WAGA Replicate 3 [1, 9] | Area under the dose-response curve (AUC) UISO Replicate 1 [2, 10] | Area under the dose-response curve (AUC) UISO Replicate 2 [2, 11] | Area under the dose-response curve (AUC) UISO Replicate 3 [2, 12] | Area under the dose-response curve (AUC) MKL-1 Replicate 1 [3, 13] | Area under the dose-response curve (AUC) MKL-1 Replicate 2 [3, 14] | Area under the dose-response curve (AUC) MKL-1 Replicate 3 [3, 15] | Area under the dose-response curve (AUC) MCC26 Replicate 1 [4, 16] | Area under the dose-response curve (AUC) MCC26 Replicate 2 [4, 17] | Area under the dose-response curve (AUC) MCC26 Replicate 3 [4, 18] | Area under the dose-response curve (AUC) MCC13 Replicate 1 [5, 19] | Area under the dose-response curve (AUC) MCC13 Replicate 2 [5, 20] | Area under the dose-response curve (AUC) MCC13 Replicate 3 [5, 21] | Area under the dose-response curve (AUC) MKL-2 Replicate 1 [6, 22] | Area under the dose-response curve (AUC) MKL-2 Replicate 2 [6, 23] | Area under the dose-response curve (AUC) MKL-2 Replicate 3 [6, 24] | Area under the dose-response curve (AUC) WAGA Replicate 1 [1] | Area under the dose-response curve (AUC) WAGA Replicate 2 [1] | also measured |
| --- | --- | --- | --- | --- | --- | --- | --- | --- | --- | --- | --- | --- | --- | --- | --- | --- | --- | --- | --- | --- | --- |
| CCN(CCO)CCCC(C)Nc1ccnc2cc(Cl)ccc12 (stereo not drawn) [Hydroxychloroquine sulfate] | 540.2 | 519.3 | 458.7 | 504.6 | 448.6 | 420.1 | 541.8 | 486.3 | 499.9 | 423.8 | 423.8 | 468.3 | 495.6 | 487.6 | 467.0 | 454.2 | 416.6 | 490.5 |  |  |  |
| Cc1cc(Nc2ncc3c(n2)N(C)C(=O)N(c2cc(NC(=O)c4cccc(C(F)(F)F)c4)ccc2C)C3)n(C)n1 [Pluripotin] | 419.3 | 439.3 | 440.2 | 341.8 | 376.4 | 360.3 | 453.5 | 477.1 | 466.2 | 306.5 | 289.3 | 278.9 | 368.1 | 352.7 | 330.6 | 435.4 | 458.3 | 471.4 |  |  |  |
| C/C=C(/C)C(=O)O[C@H]1C(C)=C2[C@H]([C@@H]1OC(=O)CCCCCCC)[C@@](C)(OC(C)=O)C[C@H](OC(=O)CCC)[C@@]1(O)[C@H]2OC(=O)[C@@]1(C)O [Thapsigargin] | 336.3 | 303.0 | 289.2 | 207.4 | 234.5 | 207.7 | 384.9 | 385.8 | 395.7 | 278.4 | 281.8 | 214.4 | 289.0 | 272.1 | 274.4 | 322.6 | 308.5 | 284.8 |  |  |  |
| O=C1c2c(O)ccc(O)c2C(=O)c2c(NCCNCCO)ccc(NCCNCCO)c21 [Mitoxantrone dihydrochloride] |  |  |  |  |  |  |  |  |  |  |  |  |  |  |  |  |  |  | 153.5 | 170.4 | Area under the dose-response curve (AUC) WAGA Replicate 3 [1]: 183.6; Area under the dose-response curve (AUC) UISO Replicate 1 [2]: 188.5; Area under the dose-response curve (AUC) UISO Replicate 2 [2]: 205.7; Area under the dose-response curve (AUC) UISO Replicate 3 [2]: 190.2; Area under the dose-response curve (AUC) MKL-1 Replicate 1 [3]: 180.6; Area under the dose-response curve (AUC) MKL-1 Replicate 2 [3]: 178.5; Area under the dose-response curve (AUC) MKL-1 Replicate 3 [3]: 172.4; Area under the dose-response curve (AUC) MCC26 Replicate 1 [4]: 322.6; Area under the dose-response curve (AUC) MCC26 Replicate 2 [4]: 335.6; Area under the dose-response curve (AUC) MCC26 Replicate 3 [4]: 279.8; Area under the dose-response curve (AUC) MCC13 Replicate 1 [5]: 292.1; Area under the dose-response curve (AUC) MCC13 Replicate 2 [5]: 295.3; Area under the dose-response curve (AUC) MCC13 Replicate 3 [5]: 315.4; Area under the dose-response curve (AUC) MKL-2 Replicate 1 [6]: 203.7; Area under the dose-response curve (AUC) MKL-2 Replicate 2 [6]: 186.2; Area under the dose-response curve (AUC) MKL-2 Replicate 3 [6]: 247.3 |
| CCC(=O)CCCCC[C@@H]1NC(=O)[C@H]2CCCCN2C(=O)[C@H]([C@@H](C)CC)NC(=O)[C@H](Cc2cn(OC)c3ccccc23)NC1=O [Apicidin] |  |  |  |  |  |  |  |  |  |  |  |  |  |  |  |  |  |  | 264.4 | 253.3 | Area under the dose-response curve (AUC) WAGA Replicate 3 [1]: 235.6; Area under the dose-response curve (AUC) UISO Replicate 1 [2]: 287.8; Area under the dose-response curve (AUC) UISO Replicate 2 [2]: 286.2; Area under the dose-response curve (AUC) UISO Replicate 3 [2]: 272.4; Area under the dose-response curve (AUC) MKL-1 Replicate 1 [3]: 315.8; Area under the dose-response curve (AUC) MKL-1 Replicate 2 [3]: 299.2; Area under the dose-response curve (AUC) MKL-1 Replicate 3 [3]: 285.0; Area under the dose-response curve (AUC) MCC26 Replicate 1 [4]: 312.3; Area under the dose-response curve (AUC) MCC26 Replicate 2 [4]: 327.5; Area under the dose-response curve (AUC) MCC26 Replicate 3 [4]: 296.4; Area under the dose-response curve (AUC) MCC13 Replicate 1 [5]: 352.8; Area under the dose-response curve (AUC) MCC13 Replicate 2 [5]: 341.2; Area under the dose-response curve (AUC) MCC13 Replicate 3 [5]: 320.0; Area under the dose-response curve (AUC) MKL-2 Replicate 1 [6]: 250.3; Area under the dose-response curve (AUC) MKL-2 Replicate 2 [6]: 267.1; Area under the dose-response curve (AUC) MKL-2 Replicate 3 [6]: 303.9 |
| CS[C@H]1SC[C@H]2C(=O)N(C)[C@@H](C(C)C)C(=O)OC[C@@H](NC(=O)c3cnc4ccccc4n3)C(=O)N[C@@H](C)C(=O)N(C)[C@@H]1C(=O)N(C)[C@@H](C(C)C)C(=O)OC[C@@H](NC(=O)c1cnc3ccccc3n1)C(=O)N[C@@H](C)C(=O)N2C [Echinomycin] |  |  |  |  |  |  |  |  |  |  |  |  |  |  |  |  |  |  | 225.7 | 172.6 | Area under the dose-response curve (AUC) WAGA Replicate 3 [1]: 225.4; Area under the dose-response curve (AUC) UISO Replicate 1 [2]: 140.9; Area under the dose-response curve (AUC) UISO Replicate 2 [2]: 135.8; Area under the dose-response curve (AUC) UISO Replicate 3 [2]: 136.4; Area under the dose-response curve (AUC) MKL-1 Replicate 1 [3]: 235.9; Area under the dose-response curve (AUC) MKL-1 Replicate 2 [3]: 188.8; Area under the dose-response curve (AUC) MKL-1 Replicate 3 [3]: 250.5; Area under the dose-response curve (AUC) MCC26 Replicate 1 [4]: 267.2; Area under the dose-response curve (AUC) MCC26 Replicate 2 [4]: 264.2; Area under the dose-response curve (AUC) MCC26 Replicate 3 [4]: 215.9; Area under the dose-response curve (AUC) MCC13 Replicate 1 [5]: 310.2; Area under the dose-response curve (AUC) MCC13 Replicate 2 [5]: 265.0; Area under the dose-response curve (AUC) MCC13 Replicate 3 [5]: 244.8; Area under the dose-response curve (AUC) MKL-2 Replicate 1 [6]: 166.1; Area under the dose-response curve (AUC) MKL-2 Replicate 2 [6]: 154.0; Area under the dose-response curve (AUC) MKL-2 Replicate 3 [6]: 225.2 |
| CCCCCCCCC(=O)NCc1ccc(O)c(OC)c1 [Nonivamide] |  |  |  |  |  |  |  |  |  |  |  |  |  |  |  |  |  |  | 544.9 | 499.1 | Area under the dose-response curve (AUC) WAGA Replicate 3 [1]: 488.2; Area under the dose-response curve (AUC) UISO Replicate 1 [2]: 479.2; Area under the dose-response curve (AUC) UISO Replicate 2 [2]: 501.4; Area under the dose-response curve (AUC) UISO Replicate 3 [2]: 453.6; Area under the dose-response curve (AUC) MKL-1 Replicate 1 [3]: 491.5; Area under the dose-response curve (AUC) MKL-1 Replicate 2 [3]: 481.8; Area under the dose-response curve (AUC) MKL-1 Replicate 3 [3]: 491.3; Area under the dose-response curve (AUC) MCC26 Replicate 1 [4]: 453.4; Area under the dose-response curve (AUC) MCC26 Replicate 2 [4]: 445.4; Area under the dose-response curve (AUC) MCC26 Replicate 3 [4]: 466.4; Area under the dose-response curve (AUC) MCC13 Replicate 1 [5]: 513.1; Area under the dose-response curve (AUC) MCC13 Replicate 2 [5]: 478.1; Area under the dose-response curve (AUC) MCC13 Replicate 3 [5]: 523.7; Area under the dose-response curve (AUC) MKL-2 Replicate 1 [6]: 520.2; Area under the dose-response curve (AUC) MKL-2 Replicate 2 [6]: 501.6; Area under the dose-response curve (AUC) MKL-2 Replicate 3 [6]: 494.8 |
| Nc1ccc(C(=O)Nc2ccccc2N)cc1 [Dianiline] | 404.2 | 318.5 | 364.2 | 377.0 | 432.3 | 415.8 | 338.4 | 393.7 | 398.6 | 384.0 | 438.4 | 461.6 | 470.9 | 476.2 | 459.3 | 329.9 | 373.4 | 408.4 |  |  |  |
